Where a name gives a salt, the structure may show the parent alone.
Assays:
[1] = in vivo; cited from earlier work
[2] = tested on: presynaptic α-2-adrenoceptor; conditions: cited from earlier work
[3] = tested on: post-synaptic receptors in the hippocampus; conditions: cited from earlier work
5-HT1A receptors = biological target: T1, 5-HT1A receptors (Homo sapiens, UniProt P08908); conditions: cited from earlier work
T1 sequence (P08908 1-422): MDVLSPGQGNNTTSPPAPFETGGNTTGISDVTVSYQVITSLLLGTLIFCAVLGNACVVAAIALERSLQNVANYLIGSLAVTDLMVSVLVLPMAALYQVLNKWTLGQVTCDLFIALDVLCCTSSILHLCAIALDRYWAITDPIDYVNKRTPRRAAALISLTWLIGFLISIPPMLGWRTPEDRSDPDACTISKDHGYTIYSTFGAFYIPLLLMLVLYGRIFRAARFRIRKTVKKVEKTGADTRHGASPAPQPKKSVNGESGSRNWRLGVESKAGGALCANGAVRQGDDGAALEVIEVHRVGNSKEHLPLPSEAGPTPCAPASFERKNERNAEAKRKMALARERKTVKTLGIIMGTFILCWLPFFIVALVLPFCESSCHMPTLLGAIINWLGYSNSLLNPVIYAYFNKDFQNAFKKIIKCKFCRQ

[4] = immediate-release formulations; cited from earlier work
[5] = Open label, randomized, four-way crossover, single dose bioequivalence and pharmacokinetic study of extended-release gepirone tablets; format: in vivo, human; conditions: 40-80 mg dose range
From the text: Heretofore, efficacy and pharmacokinetic data for extended release gepirone tablets have been primarily obtained by administering one or multiple 20-mg extended-release gepirone tablets (similar to that described in the Preparation Example above).
To this end, an open label, randomized, four-way crossover, single dose study design was used with a washout phase of one week between different treatments. During each study period, the subjects were hospitalized from the afternoon before until 36 hours after gepirone administration. Following discharge, blood sample collections were taken at 48, 60, and 72 hours post-administration. […]
To determine the bioequivalence of one 80-mg extended-release gepirone tablet versus four 20-mg extended-release gepirone tablets the following pharmacokinetic parameter were calculated for each subject and treatment: • tmax (TMAX) • The actual time of occurrence of Cmax. • Cmax (CMAX) • The measured maximum concentration in plasma after single dosing. • dn-Cmax (DCMAX) • The dose-normalized Cmax was calculated as Cmax/Dose. • λZ (LZ) and t1/2 (THALF) • The slope (β) of the terminal log-linear phase of the concentration-versus-time curve was determined by linear regression. […] The terminal elimination rate constant (λZ) was defined as −β from which the elimination half-life (t1/2) was calculated as […]. […]

[6] = immediate-release formulations; cited from earlier work; remark: listed apart in the source

| dose proportionality [5] | Structure (SMILES) | antidepressant-like characteristics in pre-clinical tests [1] | activity at presynaptic α-2-adrenoceptor [2] | agonism at post-synaptic receptors in the hippocampus [3] | affinity for 5-HT1A receptors (5-HT1A receptors) | T50 (time until 50% of the drug has been released under controlled in vitro conditions) [4] [h] | time to maximum drug concentration of gepirone in the bloodstream (Tmax) [6] |
| --- | --- | --- | --- | --- | --- | --- | --- |
| – | c1cnc(N2CCNCC2)nc1 [1-PP, 1-(2-pyrimidinyl)piperazine] | did not exhibit antidepressant-like characteristics | antagonist | – | – | – | – |
| – | CC1(C)CC(=O)N(CCCCN2CCN(c3ncccn3)CC2)C(=O)C1O (centres unmarked) [3′-OH gepirone] | – | – | full agonism | significant affinity | – | – |
| dose proportionality | CC1(C)CC(=O)N(CCCCN2CCN(c3ncccn3)CC2)C(=O)C1 [gepirone, 4,4-dimethyl-1-[4-[4-(2-pyrimidinyl)-1-piperazinyl]-butyl]-2,6-piperidinedione hydrochloride] | – | – | partial agonist | – | 2.5 to 3 | about 1 hour |

From patent publication US20060099267A1, “High-dosage extended-release formulation of gepirone” (Fabre-Kramer Pharmaceuticals, Inc., priority 2004, published 2006)
